Laboratory results taken from ChEMBL document CHEMBL1909046, “DrugMatrix in vitro pharmacology data”.

Key:
Glucocorticoid receptor = biological target: T1, Glucocorticoid receptor (Homo sapiens, UniProt P04150); conditions: hela s3; also: in other assays of this panel Not Active means under 50% inhibition at 10 µM
T1 sequence (P04150 whole entry): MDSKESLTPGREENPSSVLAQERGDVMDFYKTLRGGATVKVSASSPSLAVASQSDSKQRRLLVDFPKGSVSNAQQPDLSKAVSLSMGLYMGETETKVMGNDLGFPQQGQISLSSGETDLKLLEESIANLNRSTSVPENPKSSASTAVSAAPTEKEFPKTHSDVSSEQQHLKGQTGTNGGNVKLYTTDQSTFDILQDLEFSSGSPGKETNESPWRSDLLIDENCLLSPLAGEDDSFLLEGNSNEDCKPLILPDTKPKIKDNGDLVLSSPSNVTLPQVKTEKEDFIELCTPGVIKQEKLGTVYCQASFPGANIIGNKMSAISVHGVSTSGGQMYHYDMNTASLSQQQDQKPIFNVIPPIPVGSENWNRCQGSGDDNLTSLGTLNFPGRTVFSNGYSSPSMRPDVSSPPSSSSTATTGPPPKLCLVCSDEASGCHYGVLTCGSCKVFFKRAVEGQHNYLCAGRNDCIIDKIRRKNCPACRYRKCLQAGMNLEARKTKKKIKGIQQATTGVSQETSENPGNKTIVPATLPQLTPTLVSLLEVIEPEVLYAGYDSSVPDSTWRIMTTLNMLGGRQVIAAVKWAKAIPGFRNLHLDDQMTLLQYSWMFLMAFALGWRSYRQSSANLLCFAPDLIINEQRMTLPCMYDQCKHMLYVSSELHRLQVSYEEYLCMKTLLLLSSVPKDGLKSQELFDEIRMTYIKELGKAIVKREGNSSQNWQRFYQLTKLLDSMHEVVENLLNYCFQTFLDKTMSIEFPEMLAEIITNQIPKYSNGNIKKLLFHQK

[1] = DRUGMATRIX: Imidazoline I2, Central radioligand binding (ligand: [3H] Idazoxan); format: cell membranes, Rattus norvegicus, Wistar, Cerebral cortex, Membrane; conditions: Not Active = under 50% inhibition at 10 µM
[2] = biological target: T2, 5-hydroxytryptamine receptor 2C (Homo sapiens, UniProt P28335); assay: DRUGMATRIX: Serotonin (5-Hydroxytryptamine) 5-HT2C radioligand binding (ligand: [3H] Mesulergine); format: cell membranes, CHO-K1, Membrane; conditions: cho-k1; Not Active = under 50% inhibition at 10 µM
T2 sequence (P28335 whole entry): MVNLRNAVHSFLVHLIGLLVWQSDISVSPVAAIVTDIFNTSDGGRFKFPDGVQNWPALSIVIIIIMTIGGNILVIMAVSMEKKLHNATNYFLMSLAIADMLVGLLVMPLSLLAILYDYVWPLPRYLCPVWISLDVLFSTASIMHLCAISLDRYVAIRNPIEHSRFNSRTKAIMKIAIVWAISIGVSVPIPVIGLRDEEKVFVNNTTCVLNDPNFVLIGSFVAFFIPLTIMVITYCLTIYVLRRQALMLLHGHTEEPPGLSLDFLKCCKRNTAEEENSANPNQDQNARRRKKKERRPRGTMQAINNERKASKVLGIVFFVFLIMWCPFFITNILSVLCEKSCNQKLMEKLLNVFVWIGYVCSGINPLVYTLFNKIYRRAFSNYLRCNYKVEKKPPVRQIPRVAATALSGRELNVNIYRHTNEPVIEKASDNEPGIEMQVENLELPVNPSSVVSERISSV

[3] = biological target: T3, C-C chemokine receptor type 4 (Homo sapiens, UniProt P51679); format: cell membranes, Chem-1, Membrane; conditions: chem-1; also: in other assays of this panel Not Active means under 50% inhibition at 10 µM
T3 sequence (P51679 whole entry): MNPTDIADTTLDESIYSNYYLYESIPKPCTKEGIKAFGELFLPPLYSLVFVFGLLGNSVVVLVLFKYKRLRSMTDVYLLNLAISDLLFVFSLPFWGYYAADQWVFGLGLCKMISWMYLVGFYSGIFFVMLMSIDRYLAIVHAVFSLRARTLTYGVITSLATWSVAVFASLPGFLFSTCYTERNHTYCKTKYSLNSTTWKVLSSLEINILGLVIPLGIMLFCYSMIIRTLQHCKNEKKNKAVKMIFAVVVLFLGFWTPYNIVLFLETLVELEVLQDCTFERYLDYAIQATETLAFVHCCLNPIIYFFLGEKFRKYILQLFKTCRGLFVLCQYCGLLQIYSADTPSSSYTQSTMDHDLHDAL

Melanocortin receptor 3 = Melanocortin receptor 3 (Homo sapiens, UniProt P41968); format: cell membranes, HEK293, Membrane; conditions: hek293; also: in other assays of this panel Not Active means under 50% inhibition at 10 µM
Sequence of Melanocortin receptor 3 (P41968 whole entry): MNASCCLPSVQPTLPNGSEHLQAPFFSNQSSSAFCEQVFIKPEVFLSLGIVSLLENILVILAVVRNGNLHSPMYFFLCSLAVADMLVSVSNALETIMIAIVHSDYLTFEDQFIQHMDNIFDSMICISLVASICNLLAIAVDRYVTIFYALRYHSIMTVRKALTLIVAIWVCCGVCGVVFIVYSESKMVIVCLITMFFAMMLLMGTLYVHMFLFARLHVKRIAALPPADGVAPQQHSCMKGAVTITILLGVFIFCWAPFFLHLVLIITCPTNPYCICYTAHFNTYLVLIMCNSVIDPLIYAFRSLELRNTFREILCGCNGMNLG

[4] = DRUGMATRIX: Sigma2 radioligand binding (ligand: [3H] Ifenprodil); format: cell membranes, Rattus norvegicus, Wistar, Brain, Membrane; conditions: Not Active = under 50% inhibition at 10 µM

SMILES	IC50 (Glucocorticoid receptor)	IC50 [1]	Ki [1]	IC50 [2]	IC50 [3]	IC50 (Melanocortin receptor 3)	IC50 [4]	Ki [4]	IC50 ([1]; read-out: IC50)	Ki ([1]; read-out: Ki)	Ki (Glucocorticoid receptor)	Ki [2]	Ki [3]	Ki (Melanocortin receptor 3)	IC50 ([4]; read-out: IC50)	Ki ([4]; read-out: Ki)
c1ccc(Nc2ccc(Nc3ccccc3)cc2)cc1	Not Active	Not Active	Not Active	Not Active	Not Active	Not Active	Not Active	Not Active	–	–	–	–	–	–	–	–
O=C1CC[C@@H](N2C(=O)c3ccccc3C2=O)C(=O)N1	Not Active	Not Active	Not Active	Not Active	Not Active	Not Active	Not Active	Not Active	–	–	–	–	–	–	–	–
Cc1onc(O)c1CC(N)C(=O)O (racemic) [(R,S)-AMPA]	Not Active	Not Active	Not Active	Not Active	Not Active	Not Active	Not Active	Not Active	–	–	–	–	–	–	–	–
Cc1ccc2cc3c(ccc4ccccc43)c3c2c1CC3 [3-METHYLCHOLANTHRENE]	Not Active	Not Active	Not Active	Not Active	Not Active	Not Active	Not Active	Not Active	–	–	–	–	–	–	–	–
CC[C@@]1(O)C[C@H](O[C@H]2C[C@H](N(C)C)[C@H](O[C@H]3C[C@H](O)[C@H](O[C@H]4CCC(=O)[C@H](C)O4)[C@H](C)O3)[C@H](C)O2)c2c(cc3c(c2O)C(=O)c2c(O)cccc2C3=O)[C@H]1C(=O)OC [ACLARUBICIN]	Not Active	Not Active	Not Active	Not Active	Not Active	Not Active	Not Active	Not Active	–	–	–	–	–	–	–	–
Nc1nc2c(ncn2COCCO)c(=O)[nH]1 [ACYCLOVIR]	Not Active	Not Active	Not Active	Not Active	Not Active	Not Active	Not Active	Not Active	–	–	–	–	–	–	–	–
Cc1c(C)c2c(c(C)c1O)CC[C@@](C)(CCC[C@H](C)CCC[C@H](C)CCCC(C)C)O2 [ALPHA-TOCOPHEROL]	Not Active	Not Active	Not Active	Not Active	Not Active	Not Active	Not Active	Not Active	–	–	–	–	–	–	–	–
CN(C)c1nc(N(C)C)nc(N(C)C)n1 [ALTRETAMINE]	Not Active	Not Active	Not Active	Not Active	Not Active	Not Active	Not Active	Not Active	–	–	–	–	–	–	–	–
Nc1c(Br)cc(Br)cc1CN[C@H]1CC[C@H](O)CC1 [AMBROXOL]	Not Active	Not Active	Not Active	Not Active	Not Active	Not Active	Not Active	Not Active	–	–	–	–	–	–	–	–
NCCCCCC(=O)O [AMINOCAPROIC ACID]	Not Active	Not Active	Not Active	Not Active	Not Active	Not Active	Not Active	Not Active	–	–	–	–	–	–	–	–
CCC1(c2ccc(N)cc2)CCC(=O)NC1=O (centres undefined) [AMINOGLUTETHIMIDE]	Not Active	Not Active	Not Active	Not Active	Not Active	Not Active	Not Active	Not Active	–	–	–	–	–	–	–	–
Cc1ccc(/N=C/N(C)/C=N/c2ccc(C)cc2C)c(C)c1 [AMITRAZ]	Not Active	–	–	Not Active	Not Active	Not Active	Not Active	Not Active	47.7 nM	31.8 nM	–	–	–	–	–	–
CCOC(=O)C1=C(COCCN)NC(C)=C(C(=O)OC)C1c1ccccc1Cl (centres undefined) [AMLODIPINE]	Not Active	Not Active	Not Active	Not Active	Not Active	Not Active	Not Active	Not Active	–	–	–	–	–	–	–	–
COc1ccc(C[C@H]2NC[C@H](O)[C@H]2OC(C)=O)cc1 [ANISOMYCIN]	Not Active	Not Active	Not Active	Not Active	Not Active	Not Active	Not Active	Not Active	–	–	Not Active	Not Active	Not Active	Not Active	–	–
Nc1ncn([C@@H]2O[C@H](CO)[C@@H](O)[C@H]2O)c(=O)n1 [AZACITIDINE]	Not Active	Not Active	Not Active	Not Active	Not Active	Not Active	Not Active	Not Active	–	–	–	–	–	–	–	–
CN(C)C(=O)Oc1cc(OC(=O)N(C)C)cc(C(O)CNC(C)(C)C)c1 (centres undefined) [BAMBUTEROL]	Not Active	Not Active	Not Active	Not Active	Not Active	Not Active	Not Active	Not Active	–	–	–	–	–	–	–	–
c1ccc2c(c1)c1cccc3ccc4cccc2c4c31 [BENZO[E]PYRENE]	Not Active	Not Active	Not Active	Not Active	Not Active	Not Active	Not Active	Not Active	–	–	–	–	–	–	–	–
CNCCc1ccccn1 [BETAHISTINE]	Not Active	Not Active	Not Active	Not Active	Not Active	Not Active	Not Active	Not Active	–	–	–	–	–	–	–	–
CC(NC(C)(C)C)C(=O)c1cccc(Cl)c1 (centres undefined) [BUPROPION]	Not Active	Not Active	Not Active	Not Active	Not Active	Not Active	–	–	–	–	–	–	–	–	2320 nM	1420 nM
CN(Cc1ccc(C(C)(C)C)cc1)Cc1cccc2ccccc12 [BUTENAFINE]	Not Active	Not Active	Not Active	Not Active	Not Active	Not Active	–	–	–	–	–	–	–	–	255 nM	157 nM
C[C@H](CS)C(=O)N1CCC[C@H]1C(=O)O [CAPTOPRIL]	Not Active	Not Active	Not Active	Not Active	Not Active	Not Active	Not Active	Not Active	–	–	–	–	–	–	–	–
Cc1ccc(-c2cc(C(F)(F)F)nn2-c2ccc(S(N)(=O)=O)cc2)cc1 [CELECOXIB]	Not Active	Not Active	Not Active	Not Active	Not Active	Not Active	Not Active	Not Active	–	–	–	–	–	–	–	–
C[C@H](CCC(=O)O)[C@H]1CC[C@H]2[C@@H]3[C@H](O)C[C@@H]4C[C@H](O)CC[C@]4(C)[C@H]3C[C@H](O)[C@]12C [CHOLIC ACID]	Not Active	Not Active	Not Active	Not Active	Not Active	Not Active	Not Active	Not Active	–	–	–	–	–	–	–	–
Cc1cc(C2CCCCC2)n(O)c(=O)c1 [CICLOPIROX]	Not Active	Not Active	Not Active	Not Active	Not Active	Not Active	Not Active	Not Active	–	–	–	–	–	–	–	–
CC1=C2C(=CO[C@H](C)[C@H]2C)C(O)=C(C(=O)O)C1=O [CITRININ]	Not Active	Not Active	Not Active	Not Active	Not Active	Not Active	Not Active	Not Active	–	–	–	–	–	–	–	–
